Reference: ChEMBL document CHEMBL5120961, “N-Arylimidazoliums as Highly Selective Biomimetic Antimicrobial Agents” (J Med Chem, 2022)
In brackets after ≈: the same amount, converted by molar mass. Activity calls are given as the source filed them. The calls are words filed in the database; no cut-off is given here.

Experiments:
Staphylococcus aureus [1] = assay: Antibacterial activity against Staphylococcus aureus ATCC 25923 assessed as inhibition of bacterial growth incubated for 16 to 18 hrs by broth microdilution method; assay type: functional; conditions: time 16-18 hrs
Escherichia coli = assay: Antibacterial activity against Escherichia coli ATCC 25922 assessed as inhibition of bacterial growth incubated for 16 to 18 hrs by broth microdilution method; assay type: functional; conditions: time 16-18 hrs
Staphylococcus aureus [2] = assay: Antibacterial activity against methicillin-resistant Staphylococcus aureus ATCC 43300 assessed as inhibition of bacterial growth incubated for 16 to 18 hrs by broth microdilution method; assay type: functional; conditions: time 16-18 hrs
Erythrocyte = assay: Hemolytic activity in rabbit erythrocytes incubated for 1 hr; assay type: toxicity, cell-based, Oryctolagus cuniculus
[3] = Selectivity ratio of HC5 for hemolytic activity in rabbit erythrocytes to MIC for antibacterial activity against methicillin-resistant Staphylococcus aureus ATCC 43300; assay type: toxicity, cell-based
Staphylococcus aureus [4] = assay: Disruption of established biofilm in methicillin-resistant Staphylococcus aureus ATCC 43300 assessed as reduction of relative biofilm mass at 128XMIC incubated for 24 hrs by crystal violet staining based analysis; assay type: functional
Staphylococcus aureus [5] = assay: Antibacterial activity against methicillin-resistant Staphylococcus aureus ATCC 43300 infected in BALB/c mouse assessed as reduction of histopathological changes of pulmonary tissue at 4 mg/kg, iv administered at 1, 6, 25 and 30 hrs post-infection and measured on day 7 post-infection by hematoxylin-eosin staining based analysis; assay type: functional, organism-based; conditions: time 7.0 day
Staphylococcus aureus [6] = assay: Inhibition of biofilm formation in methicillin-resistant Staphylococcus aureus ATCC 43300 incubated for 24 hrs under stationary conditions by crystal violet staining based analysis; assay type: functional, organism-based
Enterococcus faecalis = assay: Antibacterial activity against Enterococcus faecalis ATCC 29212 assessed as inhibition of bacterial growth incubated for 16 to 18 hrs by broth microdilution method; assay type: functional; conditions: time 16-18 hrs

SMILES	MIC (Staphylococcus aureus [1])	MIC (Escherichia coli)	MIC (Staphylococcus aureus [2])	HC5 (Erythrocyte)	selectivity ratio [3]	inhibition (INH) (Staphylococcus aureus [4])	Activity (Staphylococcus aureus [5])	inhibition (Staphylococcus aureus [6])	MIC (Enterococcus faecalis)
CCCCCC[n+]1ccn(-c2ccc(/C=C/c3ccc(-n4cc[n+](CCCCCC)c4)cc3)cc2)c1.[Br-].[Br-]	1 µg/mL	2 µg/mL	1 µg/mL	600 µg/mL	600	–	–	–	–
CN[C@H](CC(C)C)C(=O)N[C@H]1C(=O)N[C@@H](CC(N)=O)C(=O)N[C@H]2C(=O)N[C@H]3C(=O)N[C@H](C(=O)N[C@H](C(=O)O)c4cc(O)cc(O)c4-c4cc3ccc4O)[C@H](O)c3ccc(c(Cl)c3)Oc3cc2cc(c3O[C@@H]2O[C@H](CO)[C@@H](O)[C@H](O)[C@H]2O[C@H]2C[C@](C)(N)[C@H](O)[C@H](C)O2)Oc2ccc(cc2Cl)[C@H]1O [VANCOMYCIN]	–	–	–	–	–	37%	Active	Active	1 µg/mL (≈ 0.69 µM)
CCn1cc(C(=O)O)c(=O)c2cc(F)c(N3CCNCC3)cc21 [NORFLOXACIN]	1 µg/mL (≈ 3.13 µM)	–	1 µg/mL (≈ 3.13 µM)	–	–	–	–	–	–
CC[n+]1ccn(-c2ccc(C#Cc3ccc(-n4cc[n+](CC)c4)cc3)cc2)c1.[Br-].[Br-]	64 µg/mL	8 µg/mL	64 µg/mL	8000 µg/mL	125	–	–	–	–
CCCCCCCC[n+]1ccn(CCCCn2cc[n+](CCCCCCCC)c2)c1.[Br-].[Br-]	4 µg/mL	32 µg/mL	8 µg/mL	400 µg/mL	50	–	–	–	–
CCCCCC[n+]1ccn(CCCCn2cc[n+](CCCCCC)c2)c1.[Br-].[Br-]	125 µg/mL	125 µg/mL	500 µg/mL	8000 µg/mL	16	–	–	–	–
CCCC[n+]1ccn(-c2ccc(C#Cc3ccc(-n4cc[n+](CCCC)c4)cc3)cc2)c1.[Br-].[Br-]	2 µg/mL	8 µg/mL	4 µg/mL	2000 µg/mL	500	–	–	–	–
